Data from PMC12579162, “Synthesized Depside Molecules Suppress the Progression of Colorectal Cancer by Binding VDAC1/PHB/MMP9 Being at the Crossroads of Stemness, Motility, Apoptosis, and Metabolism” (MedComm, 2025).

Legend:
Type in all cases: cell-based
spheroid formation = experiment: Spheroid formation, comparison with known MMP inhibitor (Figure S10); conditions: 10 µM, 10–14 days
Description: Monolayer cells were separated into single‐cell suspensions at around 70% confluence using a solution of trypsin. After that, the cells were added to N2‐supplemented DMEM/F12 that contained human basal fibroblast growth factor and human recombinant epidermal growth factor. Cells seeded at a density of 5 × 10^3 cells/well in ultra‐low attachment 24‐well plates (Corning Inc., Corning, NY, USA). After 10–14 days of culture, spheres were quantitated by inverted phase contrast microscopy. The relative sphere formation ability was calculated through the IMT iSolution software (IMT iSolution Inc., Northampton, NJ, USA) measuring the pixel intensity of the sphere area randomly in each plate.
Supplementary Figure S10. Comparison of the effects of novel VDAC1/PHB/MMP9 binding compounds and known MMP inhibitor on spheroid formation. Cells were exposed to the compound at 5 μM concentration of SB4 or SB5 and 10 μM of MMP inhibitor (GM 6001, ilomastat) for 10-14 days. The histogram represents spheroid formation, calculated as rate relative to vehicle-treated control, and represented as bar graphs. *p < 0.05; **p < 0.01; ***p < 0.001; NS, no significant difference between compared groups.

DLD1 cells = experiment: MTT cell viability, DLD1; conditions: Homo sapiens, DLD-1; 48 h, MTT assay
Description: (§1) Cells (3 × 10^3 cells/well) were seeded on a 96‐well plate, grown overnight, and then treated with compounds at indicated concentrations for 48 h. After incubation with MTT for 4 h at 37°C, cells were lysed with 150 µL of DMSO (Sigma–Aldrich, St. Louis, USA). Absorbance was measured at 570 nm on a microplate reader with the Gen5 software (v.2.03.1; BioTek, Winooski, VT, USA).

SW620 cells = experiment: MTT cell viability, SW620; conditions: Homo sapiens, SW-620; 48 h, MTT assay
Description: as §1

CT26 cells = experiment: MTT cell viability, CT26; conditions: Mus musculus, 48 h, MTT assay
Description: as §1

HCT116 cells = experiment: MTT cell viability, HCT116; conditions: Homo sapiens, HCT-116; 48 h, MTT assay
Description: as §1

CaCo2 cells = experiment: MTT cell viability, CaCo2; conditions: Homo sapiens, Caco-2; 48 h, MTT assay
Description: as §1

HT29 cells = experiment: MTT cell viability, HT29; conditions: Homo sapiens, HT-29; 48 h, MTT assay
Description: as §1

CSC221 cells = experiment: MTT cell viability, CSC221; conditions: Homo sapiens; 48 h, MTT assay
Description: as §1

HaCaT cells = experiment: MTT cell viability, HaCaT; conditions: Homo sapiens, 48 h, MTT assay
Description: as §1

BEAS-2B cells = experiment: MTT cell viability, BEAS-2B; conditions: Homo sapiens, 48 h, MTT assay
Description: as §1

MCF10A cells = experiment: MTT cell viability, MCF10A; conditions: Homo sapiens, MCF-10A; 48 h, MTT assay
Description: as §1

HEK293T cells = experiment: MTT cell viability, HEK293T; conditions: Homo sapiens, HEK-293T; 48 h, MTT assay
Description: as §1

IC50 (DLD1 cells) [µM] | IC50 (SW620 cells) [µM] | IC50 (CT26 cells) [µM] | IC50 (HCT116 cells) [µM] | IC50 (CaCo2 cells) [µM] | IC50 (HT29 cells) [µM] | Compound | spheroid formation (spheroid formation) | IC50 (CSC221 cells) [µM] | IC50 (HaCaT cells) [µM] | IC50 (BEAS-2B cells) [µM] | IC50 (MCF10A cells) [µM] | IC50 (HEK293T cells) [µM]
– | – | – | – | – | – | CNC(=O)[C@H](Cc1c[nH]c2ccccc12)NC(=O)[C@@H](CC(=O)NO)CC(C)C [GM 6001, ilomastat] | no effect on inhibition of spheroid formation | – | – | – | – | –
64.1 | 46.2 | 46.2 | 49.1 | 90.5 | 62.8 | COc1cc(C)c(C(=O)Oc2cc(C)c(C(=O)O)c(O)c2C)c(OC)c1C [DA, diffractaic acid, reference compound] | – | 133 | 84.2 | 54.3 | 146 | 121
